Test results published in patent publication US7572606B1 (Nereus Pharmaceuticals, Inc., priority 2005, dated 2009).
Read-outs that look alike come from different tables or passages of the source.

Assays:
Assay in all cases: NCI 60 cell line screen, sulforhodamine B, 48 h
Type in all cases: cell-based, human
ACHN = conditions: Renal Cancer
Experimental: (§1) A detailed description of the screening procedure can be found at hypertext transfer protocol (http://) “dtp.nci.nih.gov/branches/btb/ivclsp.html.”
(§2) In brief, each of the 60 human tumor cell lines were grown in RPMI 1640 medium, supplemented with 5% fetal bovine serum and 2 mM L-glutamine. Cells were plated at their appropriate density in 96-well microtiter plates and incubated at 37° C., 5% CO2, 95% air and 100% relative humidity. […] Cells were incubated for an additional 48 hours and a sulforhodamine B protein assay was used to estimate cell viability or growth.

CAK1-1 = conditions: CAK1-1, Renal Cancer
Experimental: as §1, §2

DU-145 = tested on: DU-145
Experimental: as §1, §2

HCC-2998 = tested on: HCC-2998
Experimental: as §1, §2

HCI-H23 = conditions: HCI-H23, Non-Small Cell Lung Cancer
Experimental: as §1, §2

HCT-116 = conditions: HCT-116, Colon Cancer
Experimental: as §1, §2

HCT-15 = tested on: HCT-15
Experimental: as §1, §2

K-562 = conditions: K-562, Leukemia
Experimental: as §1, §2

KM12 = conditions: KM12, Colon Cancer
Experimental: as §1, §2

MCF7 = conditions: MCF7, Breast Cancer
Experimental: as §1, §2

MDA-MB-435 = conditions: for CC50: Homo sapiens
Experimental: as §1, §2

MDA-N = conditions: Breast Cancer
Experimental: as §1, §2

NCI-H236 = conditions: NCI-H236, Non-Small Cell Lung Cancer
Experimental: as §1, §2

NCI-H522 = conditions: NCI-H522, Non-Small Cell Lung Cancer
Experimental: as §1, §2

NCVADR-RES = tested on: NCVADR-RES
Experimental: as §1, §2

OVCAR-3 = conditions: OVCAR-3, Ovarian Cancer
Experimental: as §1, §2

OVCAR-4 = conditions: OVCAR-4, Ovarian Cancer
Experimental: as §1, §2

OVCAR-5 = conditions: OVCAR-5, Ovarian Cancer
Experimental: as §1, §2

OVCAR-8 = conditions: OVCAR-8, Ovarian Cancer
Experimental: as §1, §2

PC-3 = tested on: PC-3
Experimental: as §1, §2

RPMI-8226 = tested on: RPMI-8226
Experimental: as §1, §2

RXF393 = conditions: RXF393, Renal Cancer
Experimental: as §1, §2

SF-268 = conditions: SF-268, CNS Cancer
Experimental: as §1, §2

SK-MEL-21 = conditions: for CC50: Homo sapiens
Experimental: as §1, §2

SK-MEL-2 = conditions: SK-MEL-2, Melanoma
Experimental: as §1, §2

SNB-19 = tested on: SNB-19
Experimental: as §1, §2

T-47D = tested on: T-47D
Experimental: as §1, §2

T86-0 = tested on: T86-0
Experimental: as §1, §2

UACC-257 = tested on: UACC-257
Experimental: as §1, §2

UO-11 = tested on: UO-11
Experimental: as §1, §2

[1] = Homo sapiens, 60 cell, read-out: Log10 LC50 (converted)

C[C@@]12OC(=O)[C@]1([C@@H](O)[C@@H]1C=CCCC1)NC(=O)[C@@H]2CCCl [Formula II-16, Salinosporamide A]
Log10 G150 (ACHN): <-8.00 Molar | Log10 TGI (ACHN): -5.27 Molar | Log10 G150 (CAK1-1): <-8.00 Molar | Log10 TGI (CAK1-1): >-4.00 Molar | Log10 G150 (DU-145; DU-145, Prostate Cancer): <-8.00 Molar | Log10 TGI (DU-145; DU-145, Prostate Cancer): >-4.00 Molar | CC50 (DU-145; Homo sapiens, DU-145, read-out: Log10 LC50 (converted)): > 100 µM | Log10 G150 (HCC-2998; HCC-2998, Colon Cancer): <-8.00 Molar | Log10 TGI (HCC-2998; HCC-2998, Colon Cancer): <-8.00 Molar | CC50 (HCC-2998; Homo sapiens, HCC 2998, read-out: Log10 LC50 (converted)): 0.0178 µM | Log10 G150 (HCI-H23): <-8.00 Molar | Log10 TGI (HCI-H23): -7.85 Molar | Log10 G150 (HCT-116): <-8.00 Molar | Log10 TGI (HCT-116): -7.14 Molar | Log10 G150 (HCT-15; HCT-15, Colon Cancer): <-8.00 Molar | Log10 TGI (HCT-15; HCT-15, Colon Cancer): -6.06 Molar | CC50 (HCT-15; Homo sapiens, HCT-15, read-out: Log10 LC50 (converted)): 56.2 µM | Log10 G150 (K-562): <-8.00 Molar | Log10 TGI (K-562): -5.59 Molar | Log10 G150 (KM12): <-8.00 Molar | Log10 TGI (KM12): -6.00 Molar | Log10 G150 (MCF7): <-8.00 Molar | Log10 TGI (MCF7): >-4.00 Molar | CC50 (MDA-MB-435; MDA-MB-435, read-out: LC50): < 0.01 µM | CC50 (MDA-MB-435; MDA-MB-435, read-out: Log10 LC50 (converted)): < 0.01 µM | Log10 G150 (MDA-MB-435; MDA-MB-435, Breast Cancer): <-8.00 Molar | Log10 TGI (MDA-MB-435; MDA-MB-435, Breast Cancer): <-8.00 Molar | Log10 G150 (MDA-N): <-8.00 Molar | Log10 TGI (MDA-N): <-8.00 Molar | Log10 G150 (NCI-H236): <-8.00 Molar | Log10 TGI (NCI-H236): <-8.00 Molar | Log10 G150 (NCI-H522): <-8.00 Molar | Log10 TGI (NCI-H522): <-8.00 Molar | CC50 (NCVADR-RES; [1]): 0.178 µM | Log10 G150 (NCVADR-RES; NCVADR-RES, Breast Cancer): <-8.00 Molar | Log10 TGI (NCVADR-RES; NCVADR-RES, Breast Cancer): <-8.00 Molar | Log10 G150 (OVCAR-3): <-8.00 Molar | Log10 TGI (OVCAR-3): -4.83 Molar | Log10 G150 (OVCAR-4): <-8.00 Molar | Log10 TGI (OVCAR-4): <-8.00 Molar | Log10 G150 (OVCAR-5): <-8.00 Molar | Log10 TGI (OVCAR-5): -7.28 Molar | Log10 G150 (OVCAR-8): <-8.00 Molar | Log10 TGI (OVCAR-8): -7.70 Molar | CC50 (PC-3; Homo sapiens, PC-3, read-out: Log10 LC50 (converted)): 11.7 µM | Log10 G150 (PC-3; PC-3, Prostate Cancer): <-8.00 Molar | Log10 TGI (PC-3; PC-3, Prostate Cancer): -5.81 Molar | CC50 (RPMI-8226; Homo sapiens, RPMI-8226, read-out: Log10 LC50 (converted)): > 100 µM | Log10 G150 (RPMI-8226; RPMI-8226, Leukemia): <-8.00 Molar | Log10 TGI (RPMI-8226; RPMI-8226, Leukemia): <-8.00 Molar | Log10 G150 (RXF393): <-8.00 Molar | Log10 TGI (RXF393): <-8.00 Molar | Log10 G150 (SF-268): <-8.00 Molar | Log10 TGI (SF-268): -6.92 Molar | CC50 (SK-MEL-21; 60 cell, read-out: Log10 LC50 (converted)): < 0.01 µM | CC50 (SK-MEL-21; SK-MEL-28, read-out: LC50): < 0.01 µM | Log10 G150 (SK-MEL-21; SK-MEL-21, Melanoma): <-8.00 Molar | Log10 TGI (SK-MEL-21; SK-MEL-21, Melanoma): <-8.00 Molar | Log10 G150 (SK-MEL-2): <-8.00 Molar | Log10 TGI (SK-MEL-2): <-8.00 Molar | CC50 (SNB-19; Homo sapiens, SNB-19, read-out: Log10 LC50 (converted)): > 100 µM | Log10 G150 (SNB-19; SNB-19, CNS Cancer): <-8.00 Molar | Log10 TGI (SNB-19; SNB-19, CNS Cancer): >-4.00 Molar | CC50 (T-47D; Homo sapiens, T47D, read-out: Log10 LC50 (converted)): > 100 µM | Log10 G150 (T-47D; T-47D, Breast Cancer): <-8.00 Molar | Log10 TGI (T-47D; T-47D, Breast Cancer): >-4.00 Molar | CC50 (T86-0; [1]): > 100 µM | Log10 G150 (T86-0; T86-0, Renal Cancer): <-8.00 Molar | Log10 TGI (T86-0; T86-0, Renal Cancer): -5.37 Molar | CC50 (UACC-257; Homo sapiens, UACC-257, read-out: Log10 LC50 (converted)): 0.427 µM | Log10 G150 (UACC-257; UACC-257, Melanoma): <-8.00 Molar | Log10 TGI (UACC-257; UACC-257, Melanoma): <-8.00 Molar | CC50 (UO-11; [1]): 25.7 µM | Log10 G150 (UO-11; UO-11, Renal Cancer): <-8.00 Molar | Log10 TGI (UO-11; UO-11, Renal Cancer): -5.83 Molar
